Experimental data from patent publication US8962685B2 (Vireo Systems Inc., priority 2003, dated 2015).

Legend:
[1] = Plasma uptake and relative bioavailability after oral administration in healthy human volunteers (Example 3); settings: for Plasma creatine following administration: oral 5 gram dose, versus pre-dose
Text: The order of treatment was randomly assigned and there was a 1-week wash out period between creatine treatments.

[2] = Stability of creatine in aqueous solution over 45 days (Example 4)
Text: With regard to latent product storage, standard shelf-life according to the FDA is considered to be the time it takes for 10 percent of the starting material to degrade in a given sample. […] Each data point is representative of three different samples. […] The creatine content of each sample was examined over a 45-day period.

[3] = cited from earlier work

Row | Structure (SMILES) | Plasma creatine following administration [1] | original creatine remaining in the aqueous solution ([2]; room temperature (about 21° C.), 45 days, initially 1.5 mg/mL) | increase in bioavailability ([1]; in vivo, po) | shelf-life in aqueous solution (time for 10 percent to degrade) ([2]; 1.5 mg/mL) [days] | original creatine remaining in the aqueous solution ([2]; buffer, 1080 h, 1.5 mg/mL) | standard degradation time in water [3]
1 | CN(CC(=O)O)C(=N)N.O [creatine monohydrate] | significantly elevated | about 75% | – | – | – | –
2 | CN(CC(=O)O)C(=N)N.Cl [creatine HCl, creatine hydrochloride] | significantly elevated | – | approximately 50% | ≥ 45 | approximately 95% | –
3 | CCOC(=O)CN(C)C(=N)N [creatine ethyl ester] | – | – | – | – | – | less than one
